Experimental data published in ChEMBL document CHEMBL5584315, “Evaluation of Phenazine Derivatives from the Lichen-Associated Streptomyces flavidovirens as Potent Antineuroinflammatory Agents In Vitro and In Vivo” (J Nat Prod, 2024).
Active and inactive are the calls of the source. The rule behind the calls is not given here.

How the values were obtained:
[1] = Cytotoxicity against mouse BV-2 cells assessed as cell viability at 40 uM measured after 24 hrs by MTT assay relative to control; type: toxicity, cell-based; details: read-out: Activity
BV-2 [2] = experiment: Antineuroinflammatory activity in LPS induced mouse BV-2 cells assessed as inhibition of NO production pretreated for 3 hrs followed by LPS addition and measured after 21 hrs by griess reagent based assay; type: functional, cell-based
BV-2 [3] = experiment: Antineuroinflammatory activity in LPS-induced mouse BV-2 cells assessed as suppression of iNOS expression at 20 uM preincubated for 3 hrs followed by LPS stimulation and measured after 21 hrs by Western blot analysis (reference value: 524 +/-15%); type: functional; details: time 24 hrs
[4] = Inhibition of ROS production in LPS-induced mouse BV-2 cells as decrease in intracellular ROS production at 5 uM preincubated for 3 hrs followed by LPS stimulation and measured after 21 hrs by DCFH-DA staining based microscopic analysis relative to control; type: functional; details: time 24 hrs
BV-2 [5] = experiment: Antineuroinflammatory activity in LPS-induced mouse BV-2 cells assessed as downregulation of keap1 expression at 20 uM preincubated for 3 hrs followed by LPS stimulation and measured after 21 hrs by Western blot analysis relative to control; type: functional; details: time 24 hrs
BV-2 [6] = experiment: Antineuroinflammatory activity in LPS-induced mouse BV-2 cells assessed as decrease in ratio of nuclear p65 to cytoplasmic p65 at 20 uM preincubated for 3 hrs followed by LPS stimulation and measured after 21 hrs by Western blot analysis relative to control; type: functional; design: scale not given: the % may be the effect or the level left
BV-2 [7] = experiment: Antineuroinflammatory activity in LPS-induced mouse BV-2 cells assessed as suppression of COX-2 expression at 20 uM preincubated for 3 hrs followed by LPS stimulation and measured after 21 hrs by Western blot analysis (reference value: 172 +/-9%); type: functional; details: time 24 hrs
BV-2 [8] = experiment: Inhibition of ROS production in LPS-induced mouse BV-2 cells as decrease in intracellular ROS production preincubated for 3 hrs followed by LPS stimulation and measured after 21 hrs by DCFH-DA staining based microscopic analysis relative to control; type: functional, cell-based; details: dose 5-20 µM, time 24.0 hrs
BV-2 [9] = experiment: Antineuroinflammatory activity in LPS-induced mouse BV-2 cells assessed as reduction in IL-6 expression at 5 uM preincubated for 3 hrs followed by LPS stimulation and measured after 21 hrs by ELISA method relative to control; type: functional; design: scale not given: the % may be the effect or the level left; details: time 24 hrs
BV-2 [10] = experiment: Antineuroinflammatory activity in LPS-induced mouse BV-2 cells assessed as reduction in PGE2 cytokine production at 10 uM preincubated for 3 hrs followed by LPS stimulation and measured after 21 hrs by ELISA method relative to control; type: functional; design: scale not given: the % may be the effect or the level left; details: time 24 hrs
BV-2 [11] = experiment: Antineuroinflammatory activity in mouse BV-2 cells assessed as reversal of LPS-induced cell thickening measured after 24 hrs by microscope based analysis; type: functional
BV-2 [12] = experiment: Antineuroinflammatory activity in LPS induced mouse BV-2 cells assessed as inhibition of NO production at 20 uM pretreated for 3 hrs followed by LPS addition and measured after 21 hrs by griess reagent based assay relative to control; type: functional; design: scale not given: the % may be the effect or the level left; details: time 24 hrs
Danio rerio [13] = organism: Danio rerio; experiment: Inhibition of LPS-induced ROS stress in Zebrafish embryo model assessed as reduction in ROS expression by measuring green fluorescence intensity at 15 to 30 uM pretreated for 2 hrs followed by LPS stimulation and measured after 12 hrs by H2DCF-DA staining based fluorescence microscopy analysis; type: functional, organism-based; details: dose 15-30 µM, time 14.0 hrs
BV-2 [14] = experiment: Antineuroinflammatory activity in LPS-induced mouse BV-2 cells assessed as reduction in IL-6 expression at 20 uM preincubated for 3 hrs followed by LPS stimulation and measured after 21 hrs by ELISA method relative to control; type: functional; design: scale not given: the % may be the effect or the level left; details: time 24 hrs
BV-2 [15] = experiment: Antineuroinflammatory activity in LPS-induced mouse BV-2 cells assessed as upregulation of Nrf2 expression at 20 uM preincubated for 3 hrs followed by LPS stimulation and measured after 21 hrs by Western blot analysis relative to control; type: functional; details: time 24 hrs
[16] = Antioxidant activity assessed as DPPH radical scavenging activity by absorbance based analysis; type: functional
BV-2 [17] = experiment: Antineuroinflammatory activity in LPS-induced mouse BV-2 cells assessed as reduction in TNF-alpha expression at 5 uM preincubated for 3 hrs followed by LPS stimulation and measured after 21 hrs by ELISA method relative to control; type: functional; design: scale not given: the % may be the effect or the level left; details: time 24 hrs
BV-2 [18] = experiment: Antineuroinflammatory activity in mouse BV-2 cells assessed as reversal of LPS-induced cell shortening measured after 24 hrs by microscope based analysis; type: functional
BV-2 [19] = experiment: Antineuroinflammatory activity in LPS-induced mouse BV-2 cells assessed as suppression of TAK1 expression at 20 uM preincubated for 3 hrs followed by LPS stimulation and measured after 21 hrs by Western blot analysis (reference value: 225+/-10%); type: functional; details: time 24 hrs
[20] = Inhibition of ROS production in LPS-induced mouse BV-2 cells as decrease in intracellular ROS production at 20 uM preincubated for 3 hrs followed by LPS stimulation and measured after 21 hrs by DCFH-DA staining based microscopic analysis relative to control; type: functional; details: time 24 hrs
BV-2 [21] = experiment: Antineuroinflammatory activity in mouse BV-2 cells assessed as reversal of LPS-induced enlarged cell bodies measured after 24 hrs by microscope based analysis; type: functional
BV-2 [22] = experiment: Antineuroinflammatory activity in LPS-induced mouse BV-2 cells assessed as upregulation of CAT expression at 20 uM preincubated for 3 hrs followed by LPS stimulation and measured after 21 hrs by Western blot analysis relative to control; type: functional; details: time 24 hrs
BV-2 [23] = experiment: Antineuroinflammatory activity in LPS-induced mouse BV-2 cells assessed as reduction in TNF-alpha expression at 20 uM preincubated for 3 hrs followed by LPS stimulation and measured after 21 hrs by ELISA method relative to control; type: functional; design: scale not given: the % may be the effect or the level left; details: time 24 hrs
BV-2 [24] = experiment: Antineuroinflammatory activity in LPS-induced mouse BV-2 cells assessed as reduction in PGE2 cytokine production at 20 uM preincubated for 3 hrs followed by LPS stimulation and measured after 21 hrs by ELISA method relative to control; type: functional; design: scale not given: the % may be the effect or the level left; details: time 24 hrs
BV-2 [25] = experiment: Antineuroinflammatory activity in LPS-induced mouse BV-2 cells assessed as upregulation of HO-1 expression at 20 uM preincubated for 3 hrs followed by LPS stimulation and measured after 21 hrs by Western blot analysis relative to control; type: functional; details: time 24 hrs
[26] = Antioxidant activity assessed as ABTS radical scavenging activity by absorbance based analysis; type: functional
BV-2 [27] = experiment: Antineuroinflammatory activity in LPS-induced mouse BV-2 cells assessed as suppression of TLR4 expression at 20 uM preincubated for 3 hrs followed by LPS stimulation and measured after 21 hrs by Western blot analysis (reference value: 414+/-14%); type: functional; details: time 24 hrs
BV-2 [28] = experiment: Antineuroinflammatory activity in LPS-induced mouse BV-2 cells assessed as suppression of p-IkappaBalpha/IkappaBalpha ratio at 20 uM preincubated for 3 hrs followed by LPS stimulation and measured after 21 hrs by Western blot analysis (reference value: 123+/-8%); type: functional
BV-2 [29] = experiment: Antineuroinflammatory activity in LPS-induced mouse BV-2 cells assessed as reduction in PGE2 cytokine production at 5 uM preincubated for 3 hrs followed by LPS stimulation and measured after 21 hrs by ELISA method relative to control; type: functional; design: scale not given: the % may be the effect or the level left; details: time 24 hrs
[30] = Inhibition of ROS production in LPS-induced mouse BV-2 cells as decrease in intracellular ROS production at 10 uM preincubated for 3 hrs followed by LPS stimulation and measured after 21 hrs by DCFH-DA staining based microscopic analysis relative to control; type: functional; details: time 24 hrs
BV-2 [31] = experiment: Antineuroinflammatory activity in LPS-induced mouse BV-2 cells assessed as reduction in TNF-alpha expression at 10 uM preincubated for 3 hrs followed by LPS stimulation and measured after 21 hrs by ELISA method relative to control; type: functional; design: scale not given: the % may be the effect or the level left; details: time 24 hrs
BV-2 [32] = experiment: Antineuroinflammatory activity in LPS-induced mouse BV-2 cells assessed as reduction in IL-6 expression at 10 uM preincubated for 3 hrs followed by LPS stimulation and measured after 21 hrs by ELISA method relative to control; type: functional; design: scale not given: the % may be the effect or the level left; details: time 24 hrs
Danio rerio [33] = organism: Danio rerio; experiment: Inhibition of LPS-induced ROS stress in Zebrafish embryo model assessed as reduction in ROS expression by measuring green fluorescence intensity at 30 uM pretreated for 2 hrs followed by LPS stimulation and measured after 12 hrs by H2DCF-DA staining based fluorescence microscopy analysis; type: functional, organism-based; details: time 14.0 hrs

COC(=O)c1cccc2nc3c([C@H](O)[C@@H](C)C(=O)OC)cccc3nc12
viability at 24 h, 40 µM [1]: > 98%
IC50 (BV-2 [2]): 8.3 µM

COC(=O)[C@H](C)[C@@H](O)c1cccc2nc3c(C(=O)O)cccc3nc12
Activity (BV-2 [3]): 303%
inhibition at 5 µM [4]: 8%
Activity (BV-2 [5]): 36%
Activity (BV-2 [6]): 60%
Activity (BV-2 [7]): 105%
inhibition (BV-2 [8]): Dose-Dependent Effect
Activity (BV-2 [9]): 20%
Activity (BV-2 [10]): 47%
Activity (BV-2 [11]): Dose-Dependent Effect
viability at 24 h, 40 µM [1]: > 98%
Activity (BV-2 [12]): 70%
inhibition (Danio rerio [13]): Active
Activity (BV-2 [14]): 49%
Activity (BV-2 [15]): 67%
EC50 [16]: 1900 µM
IC50 (BV-2 [2]): 8 µM
Activity (BV-2 [17]): 10%
Activity (BV-2 [18]): Dose-Dependent Effect
Activity (BV-2 [19]): 38%
inhibition at 20 µM [20]: 66%
Activity (BV-2 [21]): Dose-Dependent Effect
Activity (BV-2 [22]): 10%
Activity (BV-2 [23]): 47%
Activity (BV-2 [24]): 62%
Activity (BV-2 [25]): 54%
EC50 [26]: 900 µM
Activity (BV-2 [27]): 73%
Activity (BV-2 [28]): 36%
Activity (BV-2 [29]): 34%
inhibition at 10 µM [30]: 30%
Activity (BV-2 [31]): 33%
Activity (BV-2 [32]): 38%

O=c1c(O)c(-c2ccc(O)c(O)c2)oc2cc(O)cc(O)c12 [QUERCETIN]
IC50 (BV-2 [2]): 9.8 µM

CC(=O)NCCc1c[nH]c2ccccc12 [NB-ACETYLTRYPTAMINE]
viability at 24 h, 40 µM [1]: > 98%
IC50 (BV-2 [2]): > 20 µM

COC(=O)c1cccc2nc3ccccc3nc12
viability at 24 h, 40 µM [1]: > 98%
IC50 (BV-2 [2]): 8.6 µM

C[C@@H]1C[C@H]2[C@@H]3CCC4=CC(=O)C=C[C@]4(C)[C@@]3(F)[C@@H](O)C[C@]2(C)[C@@]1(O)C(=O)CO
inhibition (Danio rerio [33]): inactive

CC(=O)OC[C@H]1O[C@@H](n2cnc3c(N)ncnc32)[C@H](O)[C@@H]1O
viability at 24 h, 40 µM [1]: > 98%
IC50 (BV-2 [2]): > 20 µM

CC(=O)NCC(=O)c1c[nH]c2ccccc12
viability at 24 h, 40 µM [1]: > 98%
IC50 (BV-2 [2]): > 20 µM

O=C1N[C@@H](Cc2c[nH]c3ccccc23)C(=O)N2CCC[C@@H]12 [BREVIANAMIDE F]
viability at 24 h, 40 µM [1]: > 98%
IC50 (BV-2 [2]): > 20 µM

O=C1CCCCN1Cc1ccco1
viability at 24 h, 40 µM [1]: > 98%
IC50 (BV-2 [2]): > 20 µM

O=C(O)c1ccc[nH]1
viability at 24 h, 40 µM [1]: > 98%
IC50 (BV-2 [2]): 19.5 µM
